Measurements taken from patent US20140308313A1 (priority 2006, published 2014).

Assays:
[1] = test system: MenB-specific memory B cells; design: species or system mice; details: mouse, in vivo
[2] = test system: protein-specific antibodies (TT, DT, H3N2); design: species or system C57/BL6 mice; details: mouse, in vivo
[3] = test system: MenB antigens ΔG287nz-953, 936-741 and 961c; design: species or system mice; details: mouse, in vivo
[4] = test system: MenB; design: species or system mice; details: mouse, in vivo
[5] = test system: GBS80-IgG; design: species or system mice; details: mouse, in vivo
[6] = test system: H3N2-specific antibodies; assay: H3N2 antibody response in mice bearing or lacking iNKT cells or CD1d; assay type: in vivo; details: mice lacking CD1d (CD1−/−); data not shown
From the text: Mice lacking iNKT cells (Ja18−/−) immunised with H3N2 and α-GC (closed boxes) show no enhancement in serum titer of H3N2-specific antibodies compared to mice lacking iNKT cells immunised with H3N2 alone (open boxes). All immunisations were subcutaneous.

[7] = test system: H3N2-specific antibodies; assay: α-GC in first, second or both priming doses of H3N2, challenge at week 56; assay type: in vivo, C57BL/6 mice
From the text: (§1) FIG. 8 depicts the immunisation schedule used to assess whether α-GC is required to be present in all vaccine doses used at priming. 20 C57BL/6 female mice, aged 6-8 weeks, were divided into 4 groups of 5 mice. Group 1) was immunised with H3N2 in PBS at week 0 and H3N2+α-GC 2 weeks later. Group 2) were immunised with H3N2+α-GC at week 0 and H3N2 in PBS 2 weeks later. Group 3) were immunised with H3N2 in PBS at week 0 and week 2. Group 4) were immunised with H3N2 and α-GC at week 0 and 2 weeks later. 56 weeks after the initial immunisation, mice in all groups were challenged with 3 μg H3N2 in PBS and recall response was assessed at 58 weeks. All immunisations were intramuscular.
as §1, with “20” for “FIG. 8 depicts the immunisation schedule used to assess whether α-GC is required to be present in all vaccine doses used at priming. 20”, “PBS.” for “PBS and recall response was assessed at 58 weeks.”

[8] = test system: CD4 T cells producing TNFα; assay type: in vivo, CD1 mice; details: 10 days after 2nd immunisation, splenocytes cultured 16 hours
Experimental: FIG. 14 show a comparison of the CD4 T cell response against recombinant MenB antigens in mice immunised intramuscularly on day 0 and 21 with: a) a combination vaccine containing 3 MenB antigens and α-GC; b) a combination vaccine containing 3 MenB antigens and Alum; or c) with a combination vaccine containing 3 MenB antigens alone. The CD4 T cell response was assessed two weeks after the second immunisation by incubating total splenocytes with the indicated amount of MenB recombinant proteins for 16 hours ([…] of which in the presence of Brefeldin A). The number CD4 T cells producing TNFα was determined by intracellular staining and FACS analysis). […] As a positive control, response of all three groups of mice to polyclonal stimulation was tested.
A second experiment was conducted to assess the ex vivo CD4 T cell response to MenB antigens. Groups of 6 CD1 female mice were immunised twice with the mix of MenB antigens, formulated in PBS, alum or α-GC. 10 days after the 2nd immunisation, 3 mice/group were sacrificed and their spleens were removed. Whole splenocyte suspensions from individual mice were cultured with the MenB antigens for 16 hours, the last 12 of which were in the presence of brefeldin A to allow intracellular accumulation of cytokines. […] Percentages of CD3+CD4+CD69+ cytokine+ cells in the total CD4+ cell population were determined by FACS analysis.

CCCCCCCCCCCCCCCCCCCCCCCCCC(=O)N[C@@H](CO[C@H]1OC(CO)[C@H](O)C(O)C1O)[C@H](O)[C@@H](O)CCCCCCCCCCCCCC (stereo partly drawn) [α-GC, α-galactosylceramide]
frequencies of MenB-specific memory B cells in spleen compared to alum [1]: higher frequencies of MenB-specific memory B cells
serum titers of protein-specific antibodies compared to proteins alone [2]: one to two logs higher
antibody response (IgG titers) to the three MenB antigens [3]: as effective as alum
bactericidal antibody titers compared to alum [4]: higher bactericidal antibody titers than alum
GBS80-IgG response in the mothers relative to alum [5]: 8 fold
adjuvant activity [6]: did not display adjuvant activity
efficacy by timing of α-GC dose ([7]; first versus second vaccine dose): Maximal efficacy was observed when α-GC was given in the first vaccine dose
recall response (H3N2 Ig titers) compared to 2 doses of H3N2 alone ([7]; two weeks after booster with H3N2 alone on week 56): higher recall responses
H3N2-antibody response compared to H3N2 in PBS ([7]; α-GC in both, first only or second only immunisation): enhance the antibody response even when given only in the first or second immunisation
expansion of CD4 T cells producing TNFα in response to MenB antigens [8]: more effective than alum
